Results as given in ChEMBL document CHEMBL3885861, “Open TG-GATES”.

Organism: Rattus norvegicus
Assay: Open TG-GATES - Regimen: Single
Assay type: toxicity, organism-based, Sprague-Dawley
Design: regimen Single, gender Male, age 6 weeks
Conditions: in vivo, po, 10 mg/kg, route gavage, dose level Middle; for APTT / Bas / Eos / Fbg / Hb / Ht / Lym / MCH / MCHC / MCV / Mono / Neu / PT / Plat / RBC / Ret / WBC: tissue Blood; for KIDNEY_L / KIDNEY_R / KIDNEY_TOTAL: tissue Kidney; for LIVER: tissue Liver; for A/G / ALP / ALT / AST / BUN / CRE / Ca / Cl / DBIL / GLC / IP / K / LDH / Na / PL / RALB / TBIL / TC / TG / TP / gamma-GTP: tissue Plasma

`Cn1cnc([N+](=O)[O-])c1Sc1ncnc2nc[nH]c12` [AZATHIOPRINE] gave a TERMINAL_BW (3 h) of 192.8 g, an APTT (3 h) of 22.9 s and a Bas (3 h) of 0%. For the same molecule, the Eos (3 h) was 0.8%, the Fbg (3 h) was 277.6 mg/dL and the Hb (3 h) was 13.1 g/dL. The Ht (3 h) was 39.1%, the Lym (3 h) was 77.8% and the MCH (3 h) was 21.6 pg. For the same molecule, the MCHC (3 h) was 33.7%, the MCV (3 h) was 64.2 fL and the Mono (3 h) was 2.2%. The Neu (3 h) was 18%, the PT (3 h) was 15.7 s and the Plat (3 h) was 117.8 x10_4/uL. It also gave an RBC (3 h) of 609.8 x10_4/ul, a Ret (3 h) of 9.7% and a WBC (3 h) of 65 x10_2/uL. The KIDNEY_L (3 h) was 0.9 g, the KIDNEY_R (3 h) was 0.9 g and the KIDNEY_TOTAL (3 h) was 1.7 g. The LIVER (3 h) was 8.5 g, the A/G (3 h) was 1.1 and the ALP (3 h) was 1723.6 IU/L. It also gave an ALT (3 h) of 47.6 IU/L, an AST (3 h) of 78 IU/L and a BUN (3 h) of 11.4 mg/dL. The CRE (3 h) was 0.2 mg/dL, the Ca (3 h) was 10.6 mg/dL and the Cl (3 h) was 105.6 meq/L. The DBIL (3 h) was 0.006 mg/dL, the GLC (3 h) was 189.4 mg/dL and the IP (3 h) was 9.1 mg/dL. For the same molecule, the K (3 h) was 4.1 meq/L, the LDH (3 h) was 211.4 IU/L and the Na (3 h) was 141.8 meq/L. The PL (3 h) was 133.2 mg/dL, the RALB (3 h) was 2.9 g/dL and the TBIL (3 h) was 0.008 mg/dL. The TC (3 h) was 77 mg/dL, the TG (3 h) was 57.6 mg/dL and the TP (3 h) was 5.5 g/dL. For the same molecule, the gamma-GTP (3 h) was 1 IU/L, the TERMINAL_BW (6 h) was 189.2 g and the APTT (6 h) was 21.4 s. For the same molecule, the Bas (6 h) was 0%, the Eos (6 h) was 1% and the Fbg (6 h) was 308.4 mg/dL. The Hb (6 h) was 12.8 g/dL, the Ht (6 h) was 39% and the Lym (6 h) was 72%. The MCH (6 h) was 21.4 pg, the MCHC (6 h) was 32.9% and the MCV (6 h) was 65.2 fL. The Mono (6 h) was 2.8%, the Neu (6 h) was 22.8% and the PT (6 h) was 15.6 s. For the same molecule, the Plat (6 h) was 124.6 x10_4/uL, the RBC (6 h) was 598.6 x10_4/ul and the Ret (6 h) was 9.2%. The WBC (6 h) was 73.6 x10_2/uL, the KIDNEY_L (6 h) was 0.9 g and the KIDNEY_R (6 h) was 0.9 g. For the same molecule, the KIDNEY_TOTAL (6 h) was 1.8 g, the LIVER (6 h) was 8.1 g and the A/G (6 h) was 1.2. The ALP (6 h) was 1521.2 IU/L, the ALT (6 h) was 41.8 IU/L and the AST (6 h) was 70.6 IU/L. The BUN (6 h) was 8.8 mg/dL, the CRE (6 h) was 0.1 mg/dL and the Ca (6 h) was 10.5 mg/dL. It also gave a Cl (6 h) of 107.2 meq/L, a DBIL (6 h) of 0.004 mg/dL and a GLC (6 h) of 175.4 mg/dL. For the same molecule, the IP (6 h) was 9.1 mg/dL, the K (6 h) was 4.6 meq/L and the LDH (6 h) was 249.2 IU/L. The Na (6 h) was 140.8 meq/L, the PL (6 h) was 120.6 mg/dL and the RALB (6 h) was 2.9 g/dL. For the same molecule, the TBIL (6 h) was 0.01 mg/dL, the TC (6 h) was 72.6 mg/dL and the TG (6 h) was 50.4 mg/dL. For the same molecule, the TP (6 h) was 5.4 g/dL, the gamma-GTP (6 h) was 1 IU/L and the TERMINAL_BW (9 h) was 183.9 g. For the same molecule, the APTT (9 h) was 22.4 s, the Bas (9 h) was 0% and the Eos (9 h) was 1%. For the same molecule, the Fbg (9 h) was 304.8 mg/dL, the Hb (9 h) was 12.9 g/dL and the Ht (9 h) was 38.9%. It also gave a Lym (9 h) of 74.8%, an MCH (9 h) of 21.8 pg and an MCHC (9 h) of 33.2%. For the same molecule, the MCV (9 h) was 65.6 fL, the Mono (9 h) was 2.4% and the Neu (9 h) was 20.6%. The PT (9 h) was 15.3 s, the Plat (9 h) was 114.2 x10_4/uL and the RBC (9 h) was 592.2 x10_4/ul. For the same molecule, the Ret (9 h) was 9%, the WBC (9 h) was 83.3 x10_2/uL and the KIDNEY_L (9 h) was 0.9 g. It also gave a KIDNEY_R (9 h) of 0.9 g, a KIDNEY_TOTAL (9 h) of 1.7 g and an LIVER (9 h) of 7.7 g. For the same molecule, the A/G (9 h) was 1.2, the ALP (9 h) was 1473.8 IU/L and the ALT (9 h) was 32.4 IU/L. It also gave an AST (9 h) of 64.8 IU/L, a BUN (9 h) of 10 mg/dL and a CRE (9 h) of 0.1 mg/dL. The Ca (9 h) was 10.4 mg/dL, the Cl (9 h) was 106.6 meq/L and the DBIL (9 h) was 0 mg/dL. For the same molecule, the GLC (9 h) was 186 mg/dL, the IP (9 h) was 9.6 mg/dL and the K (9 h) was 4.2 meq/L. For the same molecule, the LDH (9 h) was 223.2 IU/L, the Na (9 h) was 141 meq/L and the PL (9 h) was 145 mg/dL. It also gave an RALB (9 h) of 3.1 g/dL, a TBIL (9 h) of 0.012 mg/dL and a TC (9 h) of 85.2 mg/dL. The TG (9 h) was 47 mg/dL, the TP (9 h) was 5.6 g/dL and the gamma-GTP (9 h) was 1 IU/L. The TERMINAL_BW (24 h) was 199.9 g, the APTT (24 h) was 20.9 s and the Bas (24 h) was 0%. The Eos (24 h) was 1%, the Fbg (24 h) was 309 mg/dL and the Hb (24 h) was 13.4 g/dL. It also gave a Ht (24 h) of 39.3%, a Lym (24 h) of 81.6% and an MCH (24 h) of 21.7 pg. For the same molecule, the MCHC (24 h) was 34.1%, the MCV (24 h) was 63.9 fL and the Mono (24 h) was 2%. It also gave a Neu (24 h) of 14.4%, a PT (24 h) of 15.4 s and a Plat (24 h) of 120.4 x10_4/uL. It also gave an RBC (24 h) of 616.2 x10_4/ul, a Ret (24 h) of 7.9% and a WBC (24 h) of 54.7 x10_2/uL. The KIDNEY_L (24 h) was 0.9 g, the KIDNEY_R (24 h) was 0.9 g and the KIDNEY_TOTAL (24 h) was 1.8 g. The LIVER (24 h) was 9.2 g, the A/G (24 h) was 1.3 and the ALP (24 h) was 1643.2 IU/L. For the same molecule, the ALT (24 h) was 40.2 IU/L, the AST (24 h) was 71.4 IU/L and the BUN (24 h) was 15.4 mg/dL. The CRE (24 h) was 0.1 mg/dL, the Ca (24 h) was 10.8 mg/dL and the Cl (24 h) was 106.8 meq/L. The DBIL (24 h) was 0.002 mg/dL, the GLC (24 h) was 190.6 mg/dL and the IP (24 h) was 7.6 mg/dL. The K (24 h) was 4.1 meq/L, the LDH (24 h) was 203.8 IU/L and the Na (24 h) was 143 meq/L. For the same molecule, the PL (24 h) was 160.2 mg/dL, the RALB (24 h) was 3.1 g/dL and the TBIL (24 h) was 0.006 mg/dL. It also gave a TC (24 h) of 90 mg/dL, a TG (24 h) of 82.6 mg/dL and a TP (24 h) of 5.6 g/dL. The gamma-GTP (24 h) was 1 IU/L.
